Holding throughout (assay type): biochemical
One experiment addresses T1, Taq DNA polymerase (Thermus aquaticus, UniProt P19821).
T1 construct: purchased APBiotech
As to the kind of experiment: Thermostable DNA polymerase primer extension, Taq. The conditions noted are these: DNA template, 45° C. for 20–40 minutes; for primer extended by at least one base within assay time (grade): TTP replaced entirely by test compound. The arrangement: key to result of incorporation (termination / further chain extension): T: Incorporation results in termination; E: Incorporation permits further chain extension; T/E: Predominant product is primer extended by one base, but evidence of some further extension also observed. Here is the method:
(§1) DNA polymerase assays were performed using Sequence 1 as primer and Sequence 2 as template. • Sequence 1 5′[Cy3]TAACTCATTAACAGGATC 3′ • Sequence 2 5′AT TCGCGGTATTCTGGTATGAAGCTTTTAGATCCTGTTAATGAGTTA GTA3′
(§2) The template (Sequence 2) was designed such that the base (underlined) immediately adjacent to the 3′ end of the hybridised primer is complementary to the nucleotide test compound. Nucleotide test compounds were compounds (6) (4′-C-(glycylaminomethyl)thymidine triphosphate), (8) (4′-C-(N-trifluoroacetyaminomethyl)thymidine triphosphate) and (9) (4′-C-(aminomethyl)thymidine triphosphate) as described above.
(§3) Primer extension reactions were performed using the above primers in the presence of 40 to 80 μM of nucleotide triphosphates. Positive control reactions contained all four native nucleotide triphosphates. For the other reactions the TTP was replaced with either a 2:1 ratio of […] for the terminator control, or entirely by the test compound The enzymes were used at a final concentration of 0.175 units/μl and a magnesium ion concentration of 2.5 mM in buffers supplied by the manufacturer. The primer and template concentrations were 0.5 pmol/μl and 2 pmol/μl respectively.
(§4) Extension reactions with thermophilic enzymes were performed by initially denaturing the fully assembled reactions at 70° C. for 5 min. followed by 45° C. for 20–40 minutes. The following enzymes were used: Taq DNA polymerase (Taq); Thermosequenase (TS); Thermosequenase II (TSII); Thermosequenase E (TSE), Tfl DNA polymerase (Tfl); Tth DNA polymerase (Tth), deltaTts DNA polymerase (deltaTts), deltaTts D DNA polymerase (dettaTTSD) (all from APBiotech); Pfu DNA polymerase (Pfu) (Stratagene Ltd); Vent™ DNA polymerase (Vent) (New England Biolabs).
(§5) The reactions were stopped by adding a 0.5 volume aliquot of 80% formamide containing 0.1% (w/v) bromophenol blue and 0.1% (w/v) cresol blue. The reaction products were separated by denaturing gel electrophoresis at a constant power of 45 W on 16% polyacrylamide gels containing 50% urea.
(§6) Gels were scanned for Cy3 fluorescence on a Molecular Dynamics Fluorimager and the data analysed using Molecular Dynamics ImageQuant 5 software.
(§7) The incorporation of a test nucleotide triphosphate results in the appearance on a polyacrylamide gel of a single band corresponding to a single base extension product. If, however, the enzyme adds additional bases then further bands would be observed that corresponded to either the full-length product or positions of other complementary bases in the template.

The subject of the next experiment is Thermosequenase E. As to the kind of experiment: Thermostable DNA polymerase primer extension, TSE. The arrangement: key to result of incorporation (termination / further chain extension): T: Incorporation results in termination; E: Incorporation permits further chain extension; T/E: Predominant product is primer extended by one base, but evidence of some further extension also observed. The conditions noted are these: DNA template, 45° C. for 20–40 minutes; for primer extended by at least one base within assay time (grade): TTP replaced entirely by test compound. As to the method:
as §1, §2, §3, §4, §5, §6, §7

Experiment [1] addresses T2, Klenow fragment of DNA polymerase 1 (Escherichia coli, UniProt P00582).
T2 construct: Klenow fragment of DNA polymerase 1 (Klen); purchased AP Biotech
As to the kind of experiment: Mesophilic DNA polymerase primer extension, Klen. As to conditions: DNA template, TTP replaced entirely by test compound, 37° C. for 20–40 minutes. The arrangement: key: −: No extension within assay time; +/−: up to 25% of primer extended by at least one base within assay time; +: up to 50% of primer extended by at least one base within assay time; ++: up to 75% of primer extended by at least one base within assay time; +++: essentially all primer extended by at least one base within assay time. As to the method: as §1, §2, §3
(§8) Extension reactions preformed with mesophilic polymerases were carried out by mixing all the components of the reaction except the enzyme and heating to 70° C. for 5 min. After the reactions had cooled to room temperature 0.175 units of the enzyme were added and the reactions heated to 37° C. for 20–40 minutes. The following enzymes were used: T7 DNA polymerase (T7); Sequenase 2™ (Seq); Klenow fragment of DNA polymerase 1 (Klen); phi-29 DNA polymerase (Phi-29); T4 DNA polymerase (T4) (all from AP Biotech) and Bst DNA polymerase (Bst) (Cambio Ltd).
The reactions were stopped by adding a 0.5 volume aliquot of 80% formamide containing 0.1% (w/v) bromophenol blue and 0.1% (w/v) cresol blue. […]
(§9) Gels were scanned for Cy3 fluorescence on a Molecular Dynamics Fluorimager and the data analysed using Molecular Dynamics ImageQuant 5 software. […]

The next experiment has as its system Thermosequenase. In words: Thermostable polymerase under reverse transcription conditions, TS I. The conditions noted are these: RNA template, 2.5 mM Manganese ions; for primer extended by at least one base within assay time (grade): Tth reaction buffer. The arrangement: key to result of incorporation (termination / further chain extension): T: Incorporation results in termination; E: Incorporation permits further chain extension; T/E: Predominant product is primer extended by one base, but evidence of some further extension also observed. Here is the method: as §1, §2, §3, §4
(§10) Reverse transcriptase reactions were performed essentially as described above for thermophilic and mesophilic enzymes. The template for these reactions was the RNA equivalent of sequence 2. All the thermophilic enzymes were assayed in Tth reaction buffer (Cambio Ltd, Cambridge UK) containing 2.5 mM Manganese ions. The following enzymes were used: Thermosequenase (TS1); Thermosequenase II (TSII); delta Tts DNA polymerase (deltaTts); delta Tts D DNA polymerase (deltaTtsD) (all from APBiotech); Retrotherm reverse transcriptase (Retroth) (Cambio Ltd); Tth DNA polymerase (Tth) (Cambio Ltd.).
as §5, §6, §7

The next experiment has as its system Thermosequenase II. As to the kind of experiment: Thermostable polymerase under reverse transcription conditions, TS II. As to conditions: RNA template, 2.5 mM Manganese ions; for primer extended by at least one base within assay time (grade): Tth reaction buffer. More on the design: key to result of incorporation (termination / further chain extension): T: Incorporation results in termination; E: Incorporation permits further chain extension; T/E: Predominant product is primer extended by one base, but evidence of some further extension also observed. Here is the method: as §1, §2, §3, §4, §10, §5, §6, §7

The next experiment concerns AMV RT. In words: Mesophilic reverse transcriptase reaction, AMV RT. The arrangement: key: −: No extension within assay time; +/−: up to 25% of primer extended by at least one base within assay time; +: up to 50% of primer extended by at least one base within assay time; ++: up to 75% of primer extended by at least one base within assay time; +++: essentially all primer extended by at least one base within assay time. As to conditions: RNA template, final enzyme concentration of 4 units/μl. Here is the method: as §1, §2, §3, §8
Reverse transcriptase reactions were performed essentially as described above for thermophilic and mesophilic enzymes. The template for these reactions was the RNA equivalent of sequence 2. […]
as §9

T2 sequence (P00582 324-928): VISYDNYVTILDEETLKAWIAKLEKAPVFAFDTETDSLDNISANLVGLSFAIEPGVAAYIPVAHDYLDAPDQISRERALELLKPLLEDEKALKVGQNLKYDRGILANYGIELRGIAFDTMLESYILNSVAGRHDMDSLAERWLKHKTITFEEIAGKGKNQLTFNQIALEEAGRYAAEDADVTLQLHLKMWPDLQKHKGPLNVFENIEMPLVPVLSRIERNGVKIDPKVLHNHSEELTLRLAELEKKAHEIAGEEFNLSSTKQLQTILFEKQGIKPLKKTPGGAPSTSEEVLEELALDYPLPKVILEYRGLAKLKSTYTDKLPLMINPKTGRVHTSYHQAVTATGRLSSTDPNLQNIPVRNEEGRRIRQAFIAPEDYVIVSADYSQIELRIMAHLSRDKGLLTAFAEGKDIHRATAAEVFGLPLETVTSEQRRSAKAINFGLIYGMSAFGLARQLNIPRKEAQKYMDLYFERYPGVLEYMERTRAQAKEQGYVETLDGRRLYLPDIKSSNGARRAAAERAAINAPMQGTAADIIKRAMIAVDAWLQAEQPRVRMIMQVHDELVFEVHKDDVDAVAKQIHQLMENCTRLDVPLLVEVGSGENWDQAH
T1 sequence (P19821 whole entry): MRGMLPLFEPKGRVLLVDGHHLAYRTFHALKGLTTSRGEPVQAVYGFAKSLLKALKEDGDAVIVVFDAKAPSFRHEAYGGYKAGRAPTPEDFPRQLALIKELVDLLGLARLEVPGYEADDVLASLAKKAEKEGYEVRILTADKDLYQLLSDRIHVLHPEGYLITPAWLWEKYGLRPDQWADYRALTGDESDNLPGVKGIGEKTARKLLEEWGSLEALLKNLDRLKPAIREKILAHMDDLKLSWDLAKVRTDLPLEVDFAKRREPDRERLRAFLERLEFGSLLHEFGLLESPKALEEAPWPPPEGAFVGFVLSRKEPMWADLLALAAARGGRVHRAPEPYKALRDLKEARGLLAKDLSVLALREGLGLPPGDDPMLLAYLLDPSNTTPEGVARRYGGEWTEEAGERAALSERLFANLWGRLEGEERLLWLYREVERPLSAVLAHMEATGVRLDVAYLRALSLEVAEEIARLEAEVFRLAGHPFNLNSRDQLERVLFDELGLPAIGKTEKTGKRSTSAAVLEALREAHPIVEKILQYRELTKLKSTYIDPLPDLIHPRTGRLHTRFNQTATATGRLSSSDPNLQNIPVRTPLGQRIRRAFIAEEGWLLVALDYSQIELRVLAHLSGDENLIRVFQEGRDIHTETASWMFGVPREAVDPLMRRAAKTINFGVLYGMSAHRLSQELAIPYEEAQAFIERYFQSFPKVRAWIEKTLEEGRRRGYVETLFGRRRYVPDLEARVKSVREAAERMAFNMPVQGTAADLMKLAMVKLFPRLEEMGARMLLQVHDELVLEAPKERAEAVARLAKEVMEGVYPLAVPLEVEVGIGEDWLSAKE

On to “4′-C-(Aminomethyl)thymidine triphosphate [compound (9)]”, for which the “result of incorporation (termination / further chain extension)” value at Taq DNA polymerase is reported as “T”; in the experiment with Thermosequenase E, “T”; in the experiment on Thermosequenase it was “T/E”; in the experiment with Thermosequenase II, “E”. The “primer extended by at least one base within assay time (grade)” value (“primer extended” for short) at Taq DNA polymerase was “+/− (up to 25% of primer extended by at least one base within assay time)”; with Thermosequenase E, “++ (up to 75% of primer extended by at least one base within assay time)”; in experiment [1], “−”; in the experiment with Thermosequenase, “+ (up to 50% of primer extended by at least one base within assay time)”; in the experiment with Thermosequenase II, “++ (up to 75% of primer extended by at least one base within assay time)”; with AMV RT, “−”.
For the compound “4′-C-(Glycylaminomethyl)thymidine triphosphate [compound (6)]”, the “result of incorporation (termination / further chain extension)” value at Taq DNA polymerase is listed as “T”; in the experiment with Thermosequenase E it was “T”; in the experiment with Thermosequenase, “T/E”; with Thermosequenase II, “E”. Also, the “primer extended” value on Taq DNA polymerase is reported as “+/− (up to 25% of primer extended by at least one base within assay time)”; in the experiment with Thermosequenase E it was “++ (up to 75% of primer extended by at least one base within assay time)”; in experiment [1] it was “−”; with Thermosequenase, “+ (up to 50% of primer extended by at least one base within assay time)”; in the experiment with Thermosequenase II, “+ (up to 50% of primer extended by at least one base within assay time)”; in the experiment with AMV RT it was “−”.
As to `Cc1cn([C@H]2C[C@H](O)[C@@](CNC(=O)C(F)(F)F)(COP(=O)(O)OP(=O)(O)OP(=O)(O)O)O2)c(=O)[nH]c1=O` [compound (8), 4′-C-(N-trifluoroacetylaminomethyl)thymidine triphosphate], the “result of incorporation (termination / further chain extension)” value at Taq DNA polymerase is recorded as “T”; in the experiment on Thermosequenase E, “T”; with Thermosequenase it was “T/E”; in the experiment on Thermosequenase II, “E”. Moreover, the “primer extended” value is listed as “+/− (up to 25% of primer extended by at least one base within assay time)” on Taq DNA polymerase; “++ (up to 75% of primer extended by at least one base within assay time)” with Thermosequenase E; “−” in experiment [1]; “+ (up to 50% of primer extended by at least one base within assay time)” with Thermosequenase; “+ (up to 50% of primer extended by at least one base within assay time)” in the experiment on Thermosequenase II; “−” with AMV RT.

For the origin of these results see patent publication US7078499B2, “Nucleotide analogues comprising a reporter moiety and a polymerase enzyme blocking moiety” (GE Healthcare UK Limited, priority 2000, dated 2006).
